Test results from patent US20230270696A1, “MEDICINAL USE OF FINGOLIMOD IN PREVENTION AND TREATMENT OF NEURODEGENERATIVE DISEASES CAUSED BY SPHINGOLIPID DISORDERS” (priority 2020, published 2023).
Counter-ions that a name gives are not always drawn.

Key:
[1] = test system: ATP13A2 KO spastic paraplegic model mice; experiment: Standing test (number of standing per 30 minutes); format: in vivo, mouse
Procedure: 1-7 days with administration treatment on the disease model mice (shaded), 7-14 days with discontinuation treatment (unshaded), and 15-21 days with restored secondary administration treatment (shaded).
Experimental method: Spastic paraplegic ATP13A2 KO mice (KO mice) are divided into four groups and given normal saline or FTY720 dissolved in normal saline at 0.05, 0.1, and 0.5 mg/kg/day for oral administration, and the mice are tested in a standing test after 7 days of oral administration.
Experimental method: The experiment is divided into two groups: C57BL/6 wild normal mice (WT) and ATP13A2 KO spastic paraplegic model mice (KO), which are administered FTY720 0.5 mg/k/day orally at the same time, discontinued after 0-7 days of administration, and resumed after one week of discontinuation, during which the mice are tested for standing every other day.
(§1) Experimental method: The experiment is divided into four groups: C57BL/6 normal WT mice+normal saline control group (WT+C group), ATP13A2 KO aged disease model mice+normal saline control group (KO+C group), normal WT mice+FTY720 group (WT+FTY720 group), and ATP13A2 KO neurodegenerative disease model mice+FTY720 group (KO+FTY720 group). The mice are administered orally (0.5 mg/kg/day), and after two weeks, the movement function of the mice is examined using the standing test and the rotating rod test.

[2] = test system: ATP13A2 KO neurodegenerative disease model mice; experiment: Expression of genes related to sphingolipid metabolism in orbitofrontal cortex; format: in vivo, mouse; settings: one week after i.p. 0.5 mg/kg
Procedure: Red (dark) color indicates high expression and blue (light) color indicates low expression.
Experimental method: the experiment is divided into 4 groups: C57BL/6 normal WT mice+normal saline control group (WT+C group), ATP13A2 KO neurodegenerative disease model mice+normal saline control group (KO+C group), normal WT mice+FTY720 group (WT+FTY720 group), and ATP13A2 KO neurodegenerative disease model mice+FTY720 group (KO+FTY720 group). One week after intraperitoneal injection of FTY720 (0.5 mg/kg), samples are extracted from the orbitofrontal cortex area of mouse brain tissue, and Smpd1 Smpd2 Smpd3 Smpd4 Enpp7 Asah1 Asah2 Acer1 Acer2 Acer3 Cers1 Cers2 Cers3 Cers4 Cers5 Cers6 Col4a3 bp Cerk Gba Ugcg Degs1 Degs2 Sgpl1 Sptlc1 Sptic2 Sptic3 Abca1 Abca2 Abca7 Abca12 Abcc1 Abcg1 Abcg2 Sgms1 Sgms2 Cftr Sphk1 Sphk2 Slpr1 Kit Hexa Hexb Gal3st1 Gaphdh TERC TERT Ki67, etc. totally 47 genes related to sphingolipid metabolism are analyzed for comparison.

[3] = test system: ATP13A2 KO neurodegenerative disease model mice; experiment: Transmission electron microscopy of brain tissue (lipofuscin deposition, axonal myelin sheath tearing); format: in vivo, mouse; settings: two weeks after oral administration, TEM
Text: Experimental method: The experiments are divided into three groups: C57BL/6 wild normal mice (WT), ATP13A2 KO neurodegenerative disease model mice+normal saline control (KO+C), and FTY720 treatment ATP13A2 KO mice (KO+FTY720). Mice are executed two weeks after oral administration, and brain tissue is removed and fixed for transmission electron microscopy analysis.

[4] = test system: ATP13A2 KO neurodegenerative disease model mice; experiment: Rotating rod test of movement function; format: in vivo, mouse
Procedure: Experimental method: five drugs, including fingolimod, fluoxetine, clomipramine, desipramine, and trimipramine, are selected for oral administration (0.5 mg/kg) to diseased mice. The effect of the drugs on the movement function of the mice is examined one week after drug administration.
Experimental method: The experiment is divided into four groups: C57BL/6 normal WT mice+normal saline control group (WT+C group), ATP13A2 KO neurodegenerative disease model mice+normal saline control group (KO+C group), normal WT mice+FTY720 group (WT+FTY720 group), and ATP13A2 KO neurodegenerative disease model mice+FTY720 group (KO+FTY720 group). The mice are injected intraperitoneally with FTY720 (0.25 mg/kg/day, i.p.). 5 days later, the mice are tested for movement function using a rotating rod test.
Experimental method: The experiment is divided into four groups: C57BL/6 normal WT mice+normal saline control group (WT+C group), ATP13A2 KO neurodegenerative disease model mice+normal saline control group (KO+C group), normal WT mice+FTY720 group (WT+FTY720 group), ATP13A2 KO neurodegenerative disease model mice+FTY720 group (KO+FTY720 group). FTY720 dissolved in water is administered to mice orally administered (0.5 mg/kg/day), and one week later, the mice are tested for movement function using the rotating rod test.
Experimental method: The experiment is divided into four groups: C57BL/6 normal WT mice+normal saline control group (WT+C group), ATP13A2 KO neurodegenerative disease model mice+normal saline control group (KO+C group), normal WT mice+FTY720 group (WT+FTY720 group), and ATP13A2 KO neurodegenerative disease model mice+FTY720 group (KO+FTY720 group). A single administration (10 μg, i.c.v.) is administered to the mice by ventricular injection, and one week later, the mice are tested for movement function using the rotating rod test.
as §1

[5] = test system: ATP13A2 KO neurodegenerative disease model mice; experiment: Brain tissue neurotransmitter content by HPLC; format: in vivo, mouse; settings: one week after i.p. 0.5 mg/kg, striatum, hypothalamus, substantia nigra
Procedure: Experimental method: the experiment is divided into four groups: C57BL/6 normal WT mice+normal saline control group (WT+C group), ATP13A2 KO neurodegenerative disease model mice+normal saline control group (KO+C group), normal WT mice+FTY720 group (WT+FTY720 group), and ATP13A2 KO neurodegenerative disease model mice+FTY720 group (KO+FTY720 group). One week after mice are injected intraperitoneally with FTY720 (0.5 mg/kg), samples are taken from the striatum, hypothalamus, and substantia nigra of mouse brain tissue to extract neurotransmitters in the brain. Using a high performance liquid chromatography, neurotransmitters such as dopamine, serotonin, and γ-aminobutyric acid are analyzed.

[6] = test system: aged ATP13A2 KO paraplegic mouse; experiment: Standing in beaker and hind limb foot-based angle (FBA) before and after drug administration; format: in vivo
Procedure: as §1
Meanwhile, the same aged ATP13A2 KO neurodegenerative disease mouse is placed in an upright glass beaker to observe its standing (FIG. 19). […] The angle of the hind limb to the ground (FBA, foot-based angle) in the aged ATP13A2 KO paraplegic mouse is also measured.

[7] = test system: ATP13A2 KO neurodegenerative disease model mice; experiment: Lipidomic assay of striatum brain tissue (LC-MS); format: in vivo, mouse; settings: one week after i.p. 0.5 mg/kg
Procedure: Experimental method: the experiment is divided into 4 groups: C57BL/6 normal WT mice+normal saline control group (WT+C group), ATP13A2 KO neurodegenerative disease model mice+normal saline control group (KO+C group), normal WT mice+FTY720 group (WT+FTY720 group), and ATP13A2 KO neurodegenerative disease model mice+FTY720 group (KO+FTY720 group). One week after intraperitoneal injection of FTY720 (0.5 mg/kg), mice are sampled from the striatum of brain tissue, lipids are extracted from the brain tissue samples using a lipid extraction method, appropriate internal standards are added. All lipid analysis is performed in electrospray ionization (ESI) mode using a liquid mass spectrometer.

[8] = test system: MEF cells deficient in ATP13A2; experiment: Drug screening: intracellular sphingomyelin (SM C18) content by mass spectrometry; format: cell-based, mouse; settings: ATP13A2 KO MEF cells treated 48 hours (FIG. 8 legend: 10 μM, 37° C., 24 h)
Procedure: Experimental method: ten potential sphingolipid metabolic drugs reported in the literature for screening the modulatory effects on intracellular sphingolipids are selected, namely Fingolimod, Fluoxetine, Amitriptyline, Clomipramine, Desipramine, Siponimod, KRP-203, Amlodipine, Sertraline, Trimipramine, etc. MEF cells with disease-causing gene ATP13A2 KO are obtained using the disease model mouse embryos isolated and cultured. The MEF cells deficient in ATP13A2 are treated with the above ten drugs individually for 48 hours, and the intracellular content of sphingomyelin (SM C18) is measured by mass spectrometry.

sphingomyelinase = experiment: Sphingomyelinase activity assay (Sphingomyelinase Assay Kit ab138876) with or without FTY720; format: biochemical; settings: different sphingomyelinase concentrations, sphingomyelin as substrate, 60 min at 37° C., absorbance
Procedure: Different concentrations (horizontal axis) of purified sphingomyelinase are added in the presence or absence of FTY720 and incubation proceeded for 60 min at 37° C., before measuring sphingomyelin breakdown in absorbance. Blue line (top line): value of sphingomyelinase activity under normal control conditions, red line (bottom line): value of sphingomyelinase activity in the presence of FTY720.
Embodiment 4: Direct inhibition of sphingomyelinase by FTY720 Experimental method: FTY720 is purchased from Sigma, Cas No. 162359-56-0. Sphingomyelinase activity is determined using the Sphingomyelinase Assay Kit (ab138876) kit. The experiment is divided into two groups: normal sphingomyelinase activity assay group and sphingomyelinase activity assay group in the presence of FTY720.

[9] = aged ATP13A2 KO mice, oral 0.5 mg/kg/day, two weeks

CCCCCCCCc1ccc(CCC(N)(CO)CO)cc1 [FTY720, 2-amino-2-[2-(4-octylphenyl)]-1,3-propanediol hydrochloride]
number of standing [1, 9]: significant increase
number of standing after drug discontinuation ([1]; one week of discontinuation after 7 days oral 0.5 mg/k/day): gradual decrease
number of standing per 30 minutes during administration ([1]; oral 0.5 mg/k/day, days 0-7, ATP13A2 KO paraplegic mice): increases significantly with increasing administration time
number of standing per 30 minutes ([1]; oral 0.05, 0.1 and 0.5 mg/kg/day, after 7 days, ATP13A2 KO paraplegic mice): increased to different degrees in a dose-dependent manner
number of standing after resumption of administration ([1]; resumed oral administration, days 15-21): gradual increase
expression of cers4, cerk and sphk1 [2]: downregulated
expression of smpd1 and enpp7 [2]: upregulated
number of intracellular lipofuscins in brain tissue ([3]; more than 100 cells counted): significantly reduced
number of torn axonal myelin sheaths in brain tissue ([3]; more than 100 myelin sheaths counted): significantly reduced
duration of stay in the rotating rod ([4]; 0.25 mg/kg/day i.p., 5 days, ATP13A2 KO mice vs control group): significantly longer
duration of stay in the rotating rod [4, 9]: significantly longer
motor function (rotating rod), screen of five drugs ([4]; oral 0.5 mg/kg, one week after drug administration, ATP13A2 KO mice): improves the motor function of the ATP13A2 KO disease model mice among the five drugs with the most significant effect
duration of stay in the rotating rod ([4]; oral 0.5 mg/kg/day, one week, ATP13A2 KO mice vs control group): significantly longer
duration of stay in the rotating rod ([4]; single 10 μg i.c.v., one week later, ATP13A2 KO mice vs control group): significantly longer
neurotransmitter contents (dopamine, serotonin, γ-aminobutyric acid) in brain tissue [5]: restored to the normal group level
standing in an upright glass beaker after drug administration ([6]; same aged ATP13A2 KO mouse before and after drug, oral 0.5 mg/kg/day): can be photographed to stand up by clinging to the beaker wall
angle of the hind limb to the ground (FBA, foot-based angle) ([6]; same aged ATP13A2 KO paraplegic mouse before and after drug): significant increase
content of sphingomyelin and ceramide in striatum [7]: mostly restores to the normal group level
intracellular sphingomyelin (SM C18) content [8]: most obvious elevation
sphingomyelinase activity compared to the control group (sphingomyelinase): significant decrease

CN(C)CCCN1c2ccccc2CCc2ccc(Cl)cc21 [clomipramine]
intracellular sphingomyelin (SM C18) content [8]: most obvious elevation

CNCCC(Oc1ccc(C(F)(F)F)cc1)c1ccccc1 (centres unmarked) [fluoxetine]
intracellular sphingomyelin (SM C18) content [8]: most obvious elevation

CN(C)CCC=C1c2ccccc2CCc2ccccc21 [amitriptyline]
intracellular sphingomyelin (SM C18) content [8]: most obvious elevation
